Several values for one entry are separate records, joined by “and”; a condition that tells them apart may be missing. Equal values may be shown once. Entries after “also recorded” stand apart in the source; their conditions may differ.
How the values were obtained:
[1] = Intra-articular single dose pharmacokinetics study in rat; assay type: in vivo; conditions: for concentration in the knee: 1.05 μg/knee
[2] = test system: Rat Medial Meniscal Tear Model; assay: Dose range study of compound A in a rat medial meniscal tear model; assay type: in vivo, Lewis rats
Procedure: The vehicle was prepared separately and then added to aliquots of compound A powder, after which the mixture was vortexed and becomes a clear solution. Dosing solutions were prepared for doses ranging from 30 μM to 0.3 μM. Dosing volume was set to 30 μL/knee. Dosing solutions were prepared fresh for each dose. Dosing solutions were verified at the end of the study. The positive control compound FGF-18 stock was reconstituted in 5 mM Tris, pH 8.0 as per manufacturer's instructions. The FGF-18 stock was further diluted in saline to a final concentration of 0.167 mg/mL. Fresh dilutions were prepared twice a week at the time of injection.
Fourteen-week-old male Lewis rats (Charles River, Kingston, N.Y.) were in the weight range of 285-327 g.
Rats were sorted based on body weight into 8 study groups of 15 rats. They were surgerized and enrolled in a staggered fashion across one week (enroll 20 animals per day for 6 days). Animals were anesthetized with a ketamine/xylazine cocktail (50 mg/kg Ketaved—Henry Schein, and 5 mg/kg Xyalzine AniSed, respectively) by intraperitoneal injection, administered appropriate analgesics (Flunixin, 5 mg/kg subcutaneous injection), and the surgical site shaved and disinfected. A small incision was made on the medial right hind knee to expose the collateral ligament. The collateral ligament was transected and the joint capsule opened sufficiently to expose the medial meniscus. The meniscus was transected completely, then the skin incision was closed, and pressure applied to the wound to prevent hematoma development. Animals were allowed to recover on a heated blanket and were returned to their home cages. Sham procedures were carried out in a similar fashion except the medial meniscus was not cut. All surgical procedures were performed aseptically and all procedures were approved by the IACUC. Animals were monitored daily for the following week for postoperative care prior to dosing. Any animals with atypical healing (bruising/hematoma) were removed from the study and replaced with spare animals. Animals were enrolled into the following groups: […]

[3] = Final dose PK in the canine osteoarthritis study; assay type: in vivo, Beagle dogs
Procedure: Acetonitrile, water (Optima, LC/MS Grade) and formic acid, 99+% (Optima, LC/MS Grade) were purchased from Fisher Scientific. […] Chromatography HPLC column, Luna, 5 um C18 (2), 50×2.0 mm and its guard security cartridge and holder were purchased from Phenomenex. HPLC (1100 Series) was purchased from Agilent. The Mass Spectrometer system, API 3000 was purchased from SCIEX. Separation was performed on a reversed phase C18 column with a gradient elution using mobile phases of 0.1% formic acid in water (A) and 0.1% formic acid in acetonitrile (B) with flow rate at 0.6 mL/min.
Supernatant was then diluted with 0.1% formic acid in water solvent and injected onto LC-MS-MS system.
All animals were exercised 5 days a week for an hour for the duration of the study. At study day 10/11, animals began receiving weekly injections of either compound or vehicle into the surgerized joint. Blood samples were also taken pre-dose for all animals for compound determination. Animals received doses at day 10, 17, 24, 31, 38, and 45 post surgery. All intraarticular doses were standardized to 0.5 mL injections into the joint capsule via injection through the patellar ligament.
Female Beagles underwent medial meniscal tear surgery to induce osteoarthritis.

FLNA FC-1 fragment = assay: In vitro FLNA binding (competition with biotin-KGN-azide probe); conditions: 25 μM compound A, 0.5 μM BKA, FC-1 fragment 10 μg/mL, 1 hr
Text: The biological mechanism of kartogenin (KGN) was elucidated through synthesis of a biotin-kartogenin-azide (BKA) affinity probe which was used as a tool to identify the subsequent interaction with FLNA.

[4] = Intra-articular acute toxicity study in Crl:CD(SD) rat (toxicokinetics); conditions: for Tlast: male rats, median
in vivo = assay: in vivo; design: species or system Crl:CD(SD) rat; conditions: rat; for half-life: t1/2
[5] = Intravenous acute toxicity study in Crl:CD(SD) rat (toxicokinetics); assay type: in vivo; conditions: for AUC(0-t) / Cmax / half-life: Crl:CD(SD), rat, plasma; for Tlast: median
Procedure: For toxicokinetic evaluation, an additional 3 rats/sex/group were added for the 1 or 2.4 mg/kg dose groups. Toxicokinetic parameters were determined, where feasible, by non-compartmental analysis.

[6] = rat, plasma, 1.05 ug, single IA dose 1.05 μg/knee
[7] = female Beagles, 35 μg IA weekly, after 6th dose, plasma, individual animals 1-6
[8] = dose increment of 5.7 fold (from 2.1 to 12 μg)
[9] = male, Crl:CD(SD), rat, plasma, 12 ug
[10] = female, Crl:CD(SD), iv, 0.25 mg/kg
[11] = female, Crl:CD(SD), iv, 0.75 mg/kg
[12] = female, Crl:CD(SD), iv, 2.5 mg/kg
[13] = male, Crl:CD(SD), iv, 0.25 mg/kg
[14] = male, Crl:CD(SD), iv, 0.75 mg/kg
[15] = male, Crl:CD(SD), iv, 2.5 mg/kg
[16] = female rats, single IV 1 mg/kg, mean
[17] = female rats, single IV 2.4 mg/kg, mean
[18] = male rats, single IV 1 mg/kg, mean
[19] = male rats, single IV 2.4 mg/kg, mean

Compound: COCCc1ccc(NC(=O)c2ccccc2NS(C)(=O)=O)cc1 [Compound A, N-(4-(2-methoxyethyl)phenyl)-2-(methylsulfonamido)benzamide]
- concentration in the knee ([1]; 120 minutes after single IA injection): LLQ
- concentration in the knee ([1]; immediately after single IA injection): 0.9255 µg/mL
- AUC(0-inf) [1, 6]: 0.0339 µg·h/mL
- Cmax [1, 6]: 0.0533 µg/mL
- half-life ([1]; rat, plasma, 1.05 ug, single IA dose 1.05 μg/knee, read-out: plasma t1/2 (converted)): 28.9 min
- total joint scores without the femur ([2]; 30 μM (0.315 μg/knee) IA once every other week, vs vehicle): significantly improved; also recorded: significant improvement
- degree of improvement of total joint score compared with positive control ([2]; 30 μM dose, FGF-18 5 μg/injection twice a week): on par with FGF-18
- adverse effects ([2]; IA once every other week, any of the doses tested (30, 10, 3, 1, 0.3 μM)): no adverse effects
- plasma exposure after the final dose ([3]; 1 hour after IA administration): undetectable
- Cmax ([3]; female Beagles, 35 μg (0.035 mg/knee) IA weekly, after 6th dose, plasma, individual animals 1-6): 0.00222 µg/mL and 0.00264 µg/mL and 0.00187 µg/mL and 0.00226 µg/mL and 0.00108 µg/mL and 0.00154 µg/mL
- Tlast ([3]; female Beagles, 35 μg IA weekly, after 6th dose, plasma, Mean): 2.3 h
- AUC 0-τ [3, 7]: 0.00228 µg·h/mL and 0.00314 µg·h/mL and 0.00212 µg·h/mL and 0.00358 µg·h/mL and 0.00115 µg·h/mL and 0.00187 µg·h/mL
- Tlast [3, 7]: 2.0 h (5×) and 4.0 h
- AUC ([3]; female, beagle, dog, plasma, 0.035 mg/knee, female Beagles, 35 μg IA weekly, after 6th dose, plasma, Mean, read-out: AUC 0-τ): 0.00236 µg·h/mL
- Cmax ([3]; female, beagle, dog, plasma, 0.035 mg/knee, female Beagles, 35 μg IA weekly, after 6th dose, plasma, Mean, read-out: Cmax): 0.00194 µg/mL
- ability of the biotin-KGN-azide probe to bind to the FC-1 fragment of FLNA (FLNA FC-1 fragment): inhibited
- increase in mean AUC0-t [4, 8]: 2 fold
- increase in mean Cmax [4, 8]: 2 fold
- Tlast ([4]; single IA dose 2.1 μg/knee, plasma): 2.00 h
- Tlast ([4]; single IA dose 12 μg/knee, plasma): 2.00 h
- AUC(0-t) ([4]; male, Crl:CD(SD), rat, plasma, 2.1 ug): 0.0121 µg·h/mL
- AUC(0-t) [4, 9]: 0.0239 µg·h/mL
- Cmax [4, 9]: 0.0278 µg/mL
- time up to which quantifiable in the plasma of all animals (in vivo; both, Crl:CD(SD), iv): at least 4 hours
- AUC(0-t) (in vivo; [10]): 0.764 µg·h/mL
- Cmax (in vivo; [10]): 1.38 µg/mL
- t1/2 (in vivo; [10]): 32.4 min
- AUC(0-t) (in vivo; female, Crl:CD(SD), iv, 0.25 mg/kg, AUC0-t): 0.871 µg·h/mL
- Cmax (in vivo; female, Crl:CD(SD), iv, 0.25 mg/kg, Cmax): 1.23 µg/mL
- half-life (in vivo; [10]): 34.8 min
- AUC(0-t) (in vivo; [11]): 1.92 µg·h/mL
- Cmax (in vivo; [11]): 4.8 µg/mL
- t1/2 (in vivo; [11]): 28.8 min
- AUC(0-t) (in vivo; female, Crl:CD(SD), iv, 0.75 mg/kg, AUC0-t): 2.25 µg·h/mL
- Cmax (in vivo; female, Crl:CD(SD), iv, 0.75 mg/kg, Cmax): 3.49 µg/mL
- half-life (in vivo; [11]): 35.4 min
- t1/2 (in vivo; [12]): 43.8 min
- half-life (in vivo; [12]): 37.8 min
- AUC(0-t) (in vivo; [13]): 0.633 µg·h/mL
- Cmax (in vivo; [13]): 2.06 µg/mL
- t1/2 (in vivo; [13]): 25.2 min
- AUC(0-t) (in vivo; male, Crl:CD(SD), iv, 0.25 mg/kg, AUC0-t): 0.657 µg·h/mL
- Cmax (in vivo; male, Crl:CD(SD), iv, 0.25 mg/kg, Cmax): 1.94 µg/mL
- half-life (in vivo; [13]): 23.4 min
- AUC(0-t) (in vivo; [14]): 2.16 µg·h/mL
- t1/2 (in vivo; [14]): 25.8 min
- AUC(0-t) (in vivo; male, Crl:CD(SD), iv, 0.75 mg/kg, AUC0-t): 3.12 µg·h/mL
- half-life (in vivo; [14]): 37.8 min
- t1/2 (in vivo; [15]): 42.6 min
- half-life (in vivo; [15]): 38.4 min
- gender differences in mean Cmax and mean AUC0-t (in vivo): no significant gender differences
- differences in systemic exposure following single and repeated IV administration (in vivo; iv): no significant
- AUC(0-t) [5, 16]: 2.9 µg·h/mL
- Cmax [5, 16]: 9.19 µg/mL
- half-life [5, 16]: 28.8 min
- Cmax [5, 17]: 9.02 µg/mL
- half-life [5, 17]: 31.8 min
- AUC(0-t) ([5]; female rats, single IV 2.4 mg/kg, mean, t = 4 hours): 5.69 µg·h/mL
- AUC(0-t) [5, 18]: 2.5 µg·h/mL
- Cmax [5, 18]: 11.2 µg/mL
- half-life [5, 18]: 22.2 min
- AUC(0-t) [5, 19]: 4.51 µg·h/mL
- Cmax [5, 19]: 9.43 µg/mL
- half-life [5, 19]: 24 min
- half-life ([5]; both sexes, single IV administration, range over groups): 18 to 36 min
- Tlast ([5]; female rats, single IV 1 mg/kg): 2 h
- Tlast ([5]; female rats, single IV 2.4 mg/kg): 4 h
- mean AUC0-t, higher dose compared to 1 mg/kg ([5]; females, single IV): ~2.0 fold
- Tlast ([5]; male rats, single IV 1 mg/kg): 2 h
- Tlast ([5]; male rats, single IV 2.4 mg/kg): 2 h
- mean AUC0-t, higher dose compared to 1 mg/kg ([5]; males, single IV): approximately 1.8 fold
- gender differences in systemic exposure (Cmax and AUC0-t) ([5]; single IV, either dosing regimen): no notable gender differences
